Measured values: patent publication EP1166782A2, “Anti-retroviral pharmaceutical compositions” (Yang, Chi-Chiang, priority 2000, dated 2002)
Where two headings read alike, the source gives them in different places.

Key:
[1] = test system: various HIV isolates (NL-43, JRCSF or 89.6); experiment: P24 quantification, summary statements over all isolates; format: cell-based, HIV-1; details: Figures 3-5; PBMC infected with NL-43, JRCSF or 89.6
Description: (§1) PBMCs were treated with various concentrations of CAPE, MC and PEDMC provided in Example 2 and simultaneously infected with […] and macrophage and T cells dual tropic (89.6) HIV-1 isolates. The next day, the added compounds were removed by washing methods or maintained at the same concentration. Samples were divided into two groups and the upernatants of the culture medium were collected at the 3 and 7 days after infection, respectively. The use of P24 EIA Reagent Kit of Abbott Laboratory compares the concentrations of viral P24 antigen with or without the compounds tested.

[2] = test system: Peripheral Blood Mononuclear Cells (PBMC); details: for The numbers of dead cells in 400 cells' count / % viability: 48 hours; for The numbers of dead cells in 400 cells' count: control 9 dead cells; for % viability: viable cells versus control (391);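 on all read-outs here: trypan blue dye exclusion, cells stained and counted from quadruplicate dishes, DMSO vehicle kept under 0.5%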
Description: Viability of the cells was assayed by the trypan blue dye exclusion method. […] The concentration of DMSO was adjusted to be less than 0.5%. Cells from quadruplicated dishes were washed once with Hank's Balanced Salt Solution (HBSS). According to the process, the floating dead cells will be separated from the live monolayer cells. Then the cells were stained with trypan blue and counted. The total number of viable cells in the control group was considered as 100% viability and the agent-treated cells were compared with the control group for the determination of % viability. The % viability of agent-treated cells was calculated from the total number of viable cells in the control group and in the agent-treated group.

[3] = test system: macrophage and T cells dual tropic (89.6); experiment: P24 quantification (P24 EIA) in infected PBMCs, 89.6; format: cell-based, HIV-1; details: PBMC; for concentrations of the viral P24 antigen, 89.6(+): (+) original concentration of compound maintained after washing; for concentrations of the viral P24 antigen, 89.6(-): (-) compound removed after washing
Description: as §1

cells = experiment: Cellular activities in microculture tetrazolium (MTT) tests; format: cell-based
Description: The cellular activities were tested according to method as described in Alley M.C. et al, Cancer Res. 1988; 48(3):589-601. The principle of the method resides in that live cells can reduce MTT., i.e., 3-[4,5-dimethylthiazol-2-yl]-2,5-diphenyltetrazolium bromide)(tetrazolium salt) to formazan crystal through the dehydrogenase metabolism in Mitochondria. The crystal was dissolved in propanol and OD values were determined at 570 nm. The OD values can indicate the numbers of the live cells. The growth conditions of the cells were observed firstly. The cells were diluted to 2x10^4 cells/ml. 100µl sample taken by micropipet was placed in a 96-well plate. The plate was cultured for 24 hours as 37°C and 100µl of the compounds to be tested, which were prepared in medium, were added in each well. […] After culture for 4 hours, supernatant liquid was absorbed and 100 µl DMSO and 10µl /well was added. Each well was homogeneously mixed. The absorbance was determined at 570 nm.

T cells-tropic (JRCSF) = experiment: P24 quantification (P24 EIA) in infected PBMCs, JRCSF; format: cell-based, HIV-1; details: PBMC; for concentrations of the viral P24 antigen, JRCSF(+): (+) original concentration of compound maintained after washing; for concentrations of the viral P24 antigen, JRCSF(-): (-) compound removed after washing
Description: as §1

[4] = test system: macrophage-tropic (NL-43); experiment: P24 quantification (P24 EIA) in infected PBMCs, NL-43; format: cell-based, HIV-1; details: PBMC; for concentrations of the viral P24 antigen, NL43(+): (+) original concentration of compound maintained after washing; for concentrations of the viral P24 antigen, NL43(-): (-) compound removed after washing
Description: as §1

SMILES: COc1ccc(C=CC(=O)OCCc2ccccc2)cc1OC [PEDMC, phenethyl dimethyl caffeate]
- viral replications (result in words) [1]: significantly inhibited viral replications
- The numbers of dead cells in 400 cells' count ([2]; 0.1 µM): 11
- % viability ([2]; 0.1 µM): 389/391 (99.5%)
- The numbers of dead cells in 400 cells' count ([2]; 0.5 µM): 10
- % viability ([2]; 0.5 µM): 390/391 (99.7%)
- The numbers of dead cells in 400 cells' count ([2]; 1 µM): 7
- % viability ([2]; 1 µM): 393/391 (100.5%)
- The numbers of dead cells in 400 cells' count ([2]; 5 µM): 11
- % viability ([2]; 5 µM): 389/391 (99.5%)
- The numbers of dead cells in 400 cells' count ([2]; 10 µM): 9
- % viability ([2]; 10 µM): 391/391 (100%)
- The numbers of dead cells in 400 cells' count ([2]; 25 µM): 8
- % viability ([2]; 25 µM): 392/391 (100.3%)
- The numbers of dead cells in 400 cells' count ([2]; 50 µM): 10
- % viability ([2]; 50 µM): 390/391 (99.7%)
- The numbers of dead cells in 400 cells' count ([2]; 100 µM): 10
- % viability ([2]; 100 µM): 390/391 (99.7%)
- The numbers of dead cells in 400 cells' count ([2]; 200 µM): 7
- % viability ([2]; 200 µM): 393/391 (100.5%)
- The numbers of dead cells in 400 cells' count ([2]; 400 µM): 6
- % viability ([2]; 400 µM): 394/391 (100.8%)
- viabilities of PBMC under high-dose versus low-dose treatments (result in words) ([2]; high dose up to 400 µM compared with 0.1-10 µM): no substantial differences
- concentrations of the viral P24 antigen, 89.6(+) ([3]; 0.1 µM): 1000 unit
- concentrations of the viral P24 antigen, 89.6(-) ([3]; 0.1 µM): 1000 unit
- concentrations of the viral P24 antigen, 89.6(+) ([3]; 0.5 µM): 1000 unit
- concentrations of the viral P24 antigen, 89.6(-) ([3]; 0.5 µM): 1000 unit
- concentrations of the viral P24 antigen, 89.6(+) ([3]; 1 µM): 1000 unit
- concentrations of the viral P24 antigen, 89.6(-) ([3]; 1 µM): 1000 unit
- concentrations of the viral P24 antigen, 89.6(+) ([3]; 5 µM): 1000 unit
- concentrations of the viral P24 antigen, 89.6(-) ([3]; 5 µM): 1000 unit
- concentrations of the viral P24 antigen, 89.6(+) ([3]; 10 µM): 965.48 unit
- concentrations of the viral P24 antigen, 89.6(-) ([3]; 10 µM): 932.67 unit
- concentrations of the viral P24 antigen, 89.6(+) ([3]; 25 µM): 886.42 unit
- concentrations of the viral P24 antigen, 89.6(-) ([3]; 25 µM): 927.4 unit
- concentrations of the viral P24 antigen, 89.6(+) ([3]; 50 µM): 747.3 unit
- concentrations of the viral P24 antigen, 89.6(-) ([3]; 50 µM): 681.42 unit
- concentrations of the viral P24 antigen, 89.6(+) ([3]; 100 µM): 238.49 unit
- concentrations of the viral P24 antigen, 89.6(-) ([3]; 100 µM): 647 unit
- concentrations of the viral P24 antigen, 89.6(+) ([3]; 200 µM): 187.59 unit
- concentrations of the viral P24 antigen, 89.6(-) ([3]; 200 µM): 539.82 unit
- concentrations of the viral P24 antigen, 89.6(+) ([3]; 400 µM): 84.85 unit
- concentrations of the viral P24 antigen, 89.6(-) ([3]; 400 µM): 494.91 unit
- MTT 24h, cellular activities (cells; 0.1 µM): 92.38 relative percentage
- MTT 48h, cellular activities (cells; 0.1 µM): 97.31 relative percentage
- MTT 24h, cellular activities (cells; 0.5 µM): 98.72 relative percentage
- MTT 48h, cellular activities (cells; 0.5 µM): 98.72 relative percentage
- MTT 24h, cellular activities (cells; 1 µM): 98.26 relative percentage
- MTT 48h, cellular activities (cells; 1 µM): 105.28 relative percentage
- MTT 24h, cellular activities (cells; 5 µM): 94.33 relative percentage
- MTT 48h, cellular activities (cells; 5 µM): 104.07 relative percentage
- MTT 24h, cellular activities (cells; 10 µM): 98.72 relative percentage
- MTT 48h, cellular activities (cells; 10 µM): 98.08 relative percentage
- MTT 24h, cellular activities (cells; 25 µM): 107.27 relative percentage
- MTT 48h, cellular activities (cells; 25 µM): 98.78 relative percentage
- MTT 24h, cellular activities (cells; 50 µM): 102.03 relative percentage
- MTT 48h, cellular activities (cells; 50 µM): 97.15 relative percentage
- MTT 24h, cellular activities (cells; 100 µM): 106.06 relative percentage
- MTT 48h, cellular activities (cells; 100 µM): 97.74 relative percentage
- MTT 24h, cellular activities (cells; 200 µM): 97.93 relative percentage
- MTT 48h, cellular activities (cells; 200 µM): 96.32 relative percentage
- MTT 24h, cellular activities (cells; 400 µM): 94.8 relative percentage
- MTT 48h, cellular activities (cells; 400 µM): 93.76 relative percentage
- cellular activities in MTT tests (result in words) (cells; Figures 1 and 2, 24 and 48 hours): no substantial effects
- concentrations of the viral P24 antigen, JRCSF(+) (T cells-tropic (JRCSF); 0.1 µM): 1000 unit
- concentrations of the viral P24 antigen, JRCSF(-) (T cells-tropic (JRCSF); 0.1 µM): 1000 unit
- concentrations of the viral P24 antigen, JRCSF(+) (T cells-tropic (JRCSF); 0.5 µM): 1000 unit
- concentrations of the viral P24 antigen, JRCSF(-) (T cells-tropic (JRCSF); 0.5 µM): 1000 unit
- concentrations of the viral P24 antigen, JRCSF(+) (T cells-tropic (JRCSF); 1 µM): 1000 unit
- concentrations of the viral P24 antigen, JRCSF(-) (T cells-tropic (JRCSF); 1 µM): 1000 unit
- concentrations of the viral P24 antigen, JRCSF(+) (T cells-tropic (JRCSF); 5 µM): 1000 unit
- concentrations of the viral P24 antigen, JRCSF(-) (T cells-tropic (JRCSF); 5 µM): 1000 unit
- concentrations of the viral P24 antigen, JRCSF(+) (T cells-tropic (JRCSF); 10 µM): 1000 unit
- concentrations of the viral P24 antigen, JRCSF(-) (T cells-tropic (JRCSF); 10 µM): 1000 unit
- concentrations of the viral P24 antigen, JRCSF(+) (T cells-tropic (JRCSF); 25 µM): 1000 unit
- concentrations of the viral P24 antigen, JRCSF(-) (T cells-tropic (JRCSF); 25 µM): 1000 unit
- concentrations of the viral P24 antigen, JRCSF(+) (T cells-tropic (JRCSF); 50 µM): 1000 unit
- concentrations of the viral P24 antigen, JRCSF(-) (T cells-tropic (JRCSF); 50 µM): 1000 unit
- concentrations of the viral P24 antigen, JRCSF(+) (T cells-tropic (JRCSF); 100 µM): 892.45 unit
- concentrations of the viral P24 antigen, JRCSF(-) (T cells-tropic (JRCSF); 100 µM): 1000 unit
- concentrations of the viral P24 antigen, JRCSF(+) (T cells-tropic (JRCSF); 200 µM): 452.46 unit
- concentrations of the viral P24 antigen, JRCSF(-) (T cells-tropic (JRCSF); 200 µM): 1000 unit
- concentrations of the viral P24 antigen, JRCSF(+) (T cells-tropic (JRCSF); 400 µM): 348.96 unit
- concentrations of the viral P24 antigen, JRCSF(-) (T cells-tropic (JRCSF); 400 µM): 869.4 unit
- concentrations of the viral P24 antigen, NL43(+) ([4]; 0.1 µM): 1000 unit
- concentrations of the viral P24 antigen, NL43(-) ([4]; 0.1 µM): 1000 unit
- concentrations of the viral P24 antigen, NL43(+) ([4]; 0.5 µM): 1000 unit
- concentrations of the viral P24 antigen, NL43(-) ([4]; 0.5 µM): 1000 unit
- concentrations of the viral P24 antigen, NL43(+) ([4]; 1 µM): 1000 unit
- concentrations of the viral P24 antigen, NL43(-) ([4]; 1 µM): 1000 unit
- concentrations of the viral P24 antigen, NL43(+) ([4]; 5 µM): 1000 unit
- concentrations of the viral P24 antigen, NL43(-) ([4]; 5 µM): 1000 unit
- concentrations of the viral P24 antigen, NL43(+) ([4]; 10 µM): 1000 unit
- concentrations of the viral P24 antigen, NL43(-) ([4]; 10 µM): 1000 unit
- concentrations of the viral P24 antigen, NL43(+) ([4]; 25 µM): 1000 unit
- concentrations of the viral P24 antigen, NL43(-) ([4]; 25 µM): 1000 unit
- concentrations of the viral P24 antigen, NL43(+) ([4]; 50 µM): 1000 unit
- concentrations of the viral P24 antigen, NL43(-) ([4]; 50 µM): 1000 unit
- concentrations of the viral P24 antigen, NL43(+) ([4]; 100 µM): 1000 unit
- concentrations of the viral P24 antigen, NL43(-) ([4]; 100 µM): 1000 unit
- concentrations of the viral P24 antigen, NL43(+) ([4]; 200 µM): 890.43 unit
- concentrations of the viral P24 antigen, NL43(-) ([4]; 200 µM): 981.43 unit
- concentrations of the viral P24 antigen, NL43(+) ([4]; 400 µM): 640.7 unit
- concentrations of the viral P24 antigen, NL43(-) ([4]; 400 µM): 898.4 unit
